Data on 28 compounds can be found in ChEMBL document CHEMBL2021801, “Thienopyridine ureas as dual inhibitors of the VEGF and Aurora kinase families” (Bioorg Med Chem Lett, 2012).

Data set [1] deals with T1, Aurora kinase B (Homo sapiens, UniProt Q96GD4). The conditions noted are these: NCI-H1229.
In data set [2] the test system is Mus musculus. The data set is described as follows: In vivo inhibition of KDR in po dosed mouse assessed as estradiol-induced uterine edema. The class given is functional.
For data set [3], the target named is T1, Aurora kinase B. The data set is described as follows: Inhibition of Aurora B using 1 mM ATP by HTRF assay. (In general: Time-resolved FRET reads energy transfer from a long-lived donor to a nearby acceptor.)
Data set [4] deals with T2, Vascular endothelial growth factor receptor 2 (Homo sapiens, UniProt P35968). The data set is described as follows: Inhibition of KDR using 1 mM ATP by HTRF assay.
T2 sequence (P35968 whole entry): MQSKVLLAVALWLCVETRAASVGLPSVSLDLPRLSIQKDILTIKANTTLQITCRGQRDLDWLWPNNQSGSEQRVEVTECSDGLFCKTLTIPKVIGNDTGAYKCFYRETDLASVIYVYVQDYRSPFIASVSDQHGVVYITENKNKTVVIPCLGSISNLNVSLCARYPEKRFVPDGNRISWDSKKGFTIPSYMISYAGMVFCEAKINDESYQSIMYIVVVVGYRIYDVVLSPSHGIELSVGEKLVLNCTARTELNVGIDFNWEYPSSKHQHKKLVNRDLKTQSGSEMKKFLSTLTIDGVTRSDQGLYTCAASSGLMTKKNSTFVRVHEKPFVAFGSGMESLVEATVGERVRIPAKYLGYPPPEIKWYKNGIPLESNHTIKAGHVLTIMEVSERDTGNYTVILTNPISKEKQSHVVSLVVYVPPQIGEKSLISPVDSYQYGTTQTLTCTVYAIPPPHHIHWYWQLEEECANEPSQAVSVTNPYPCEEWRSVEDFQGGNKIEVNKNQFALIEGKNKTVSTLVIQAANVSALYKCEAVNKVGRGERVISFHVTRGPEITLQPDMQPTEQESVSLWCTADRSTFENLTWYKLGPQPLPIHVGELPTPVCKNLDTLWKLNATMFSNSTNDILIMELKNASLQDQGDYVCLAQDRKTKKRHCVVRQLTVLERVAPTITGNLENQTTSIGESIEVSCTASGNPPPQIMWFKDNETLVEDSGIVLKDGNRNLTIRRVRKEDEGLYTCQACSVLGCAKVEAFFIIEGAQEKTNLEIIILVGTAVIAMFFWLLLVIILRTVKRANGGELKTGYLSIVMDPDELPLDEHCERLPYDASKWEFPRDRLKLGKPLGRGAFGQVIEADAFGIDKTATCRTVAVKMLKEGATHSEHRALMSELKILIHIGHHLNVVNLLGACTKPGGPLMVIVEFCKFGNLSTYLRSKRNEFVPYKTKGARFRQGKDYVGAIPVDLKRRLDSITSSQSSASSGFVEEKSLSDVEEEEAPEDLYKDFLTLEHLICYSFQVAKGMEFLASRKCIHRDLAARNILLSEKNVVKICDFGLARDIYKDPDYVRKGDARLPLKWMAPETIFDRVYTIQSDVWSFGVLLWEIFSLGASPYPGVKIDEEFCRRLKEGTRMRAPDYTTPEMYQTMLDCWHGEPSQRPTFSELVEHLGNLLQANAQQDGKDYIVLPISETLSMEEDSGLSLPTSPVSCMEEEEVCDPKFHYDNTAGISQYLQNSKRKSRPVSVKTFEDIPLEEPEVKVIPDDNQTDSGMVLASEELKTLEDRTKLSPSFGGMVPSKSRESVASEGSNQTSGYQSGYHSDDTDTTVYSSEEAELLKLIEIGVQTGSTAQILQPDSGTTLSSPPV
Data set [5] is described as follows: Oral bioavailability in CD1 (ICR) mouse at 10 mg/kg. The class given is ADME, organism-based. As to conditions: in vivo.
A short description of data set [6]: AUC in CD1 (ICR) mouse at 10 mg/kg, po. The class given is ADME, organism-based. Set-up: dose 10 mg/kg, route oral. The conditions noted are these: plasma.
Data set [7] in a line: Clearance in CD1 (ICR) mouse at 3 mg/kg, iv. The conditions noted are these: in vivo. The data set is classed as ADME, organism-based. Details: dose 3 mg/kg, route intravenous.
The target of data set [8] is Cytochrome P450 3A4 (Homo sapiens, UniProt P08684). The data set is described as follows: Inhibition of CYP3A4 up to 10 uM. The data set is classed as ADME.
Chain of Cytochrome P450 3A4 (P08684 whole entry): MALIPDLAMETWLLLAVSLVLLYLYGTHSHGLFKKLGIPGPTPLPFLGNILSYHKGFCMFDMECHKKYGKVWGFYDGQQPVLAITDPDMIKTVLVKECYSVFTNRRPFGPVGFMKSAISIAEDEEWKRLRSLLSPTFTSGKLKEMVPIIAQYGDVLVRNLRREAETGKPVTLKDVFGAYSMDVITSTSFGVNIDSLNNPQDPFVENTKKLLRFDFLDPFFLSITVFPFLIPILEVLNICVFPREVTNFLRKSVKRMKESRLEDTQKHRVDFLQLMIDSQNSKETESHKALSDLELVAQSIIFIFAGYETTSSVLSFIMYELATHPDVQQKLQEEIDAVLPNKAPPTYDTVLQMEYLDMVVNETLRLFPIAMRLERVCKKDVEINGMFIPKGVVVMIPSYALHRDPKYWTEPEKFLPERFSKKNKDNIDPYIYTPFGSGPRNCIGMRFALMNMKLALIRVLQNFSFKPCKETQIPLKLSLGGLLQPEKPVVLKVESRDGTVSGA
Data set [9] is described as follows: Volume of distribution in CD1 (ICR) mouse at 3 mg/kg, iv. The data set is classed as ADME, organism-based. Details: dose 3 mg/kg, route intravenous. The conditions noted are these: in vivo.
A short description of data set [10]: Half life in CD1 (ICR) mouse at 3 mg/kg, iv. The data set is classed as ADME, organism-based. Details: dose 3 mg/kg, route intravenous. The conditions noted are these: in vivo.
For data set [11], the target named is T2, Vascular endothelial growth factor receptor 2. The data set is described as follows: Inhibition of human KDR phosphorylation expressed in mouse NIH3T3 cells. The data set is classed as cell-based.
The test system of data set [12] is HT-1080. The data set is described as follows: Antitumor activity against human HT1080 cells xenografted in mouse assessed as tumor growth inhibition at 10 mg/kg, po qd. The data set is classed as functional. The conditions noted are these: read-out: GI. (In xenograft studies the graft and the host belong to different species.)

Broadly, the ED50 is the dose at which the effect has come halfway, by size or by number of responders. A word on the IC50: it is the concentration that gives 50% inhibition. A lower IC50 goes with greater potency in that assay. In general, bioavailability refers to dose-corrected exposure relative to a reference, in per cent. As usually defined, the AUC is the area under the concentration-time curve, a measure of exposure. The low end stands for low exposure, the high end for high exposure. A word on the clearance: it is a measure of how efficiently the substance is removed, as volume per time. For orientation: Vd means the apparent volume that relates the amount in the body to the concentration in plasma or blood. A lower Vd goes with little distribution into tissue. In general, half-life refers to how long it takes for the measured level to halve.

T1 sequence (Q96GD4 whole entry): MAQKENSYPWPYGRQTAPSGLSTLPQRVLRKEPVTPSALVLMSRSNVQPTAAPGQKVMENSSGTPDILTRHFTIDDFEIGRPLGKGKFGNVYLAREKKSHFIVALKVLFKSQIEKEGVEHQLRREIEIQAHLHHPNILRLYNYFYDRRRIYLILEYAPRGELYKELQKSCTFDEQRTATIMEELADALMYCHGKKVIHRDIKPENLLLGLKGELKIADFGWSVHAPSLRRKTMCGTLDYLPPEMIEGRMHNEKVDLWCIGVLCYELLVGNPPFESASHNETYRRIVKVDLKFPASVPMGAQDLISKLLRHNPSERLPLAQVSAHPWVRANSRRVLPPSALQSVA

In turn, `Cn1cc(-c2cnc(N)c3c(-c4ccc(NC(=O)Nc5ccccc5F)cc4)csc23)cn1` returned an EC15 in data set [1] below 30 nM. In data set [2], the 50% effective dose (ED50) is 1.1 mg/kg. The IC50 is 18 nM in [3] and 3 nM in [4].
The compound `Cc1cccc(NC(=O)Nc2ccc(-c3csc4c(-c5cn[nH]c5)cnc(N)c34)cc2)c1` registered an EC15 in data set [1] of 31 nM. Further, in [3], 8 nM corresponded to half-maximal inhibition (IC50).
`Cc1ccccc1NC(=O)Nc1ccc(-c2csc3c(-c4cnn(C)c4)cnc(N)c23)cc1` gave an EC15 in data set [1] of 2 nM. Moreover, the ED50 in data set [2] came to 3.5 mg/kg. The IC50 in data set [3] turned out to be 8 nM; in data set [4] it was 2 nM.
Compound `Cn1cc(-c2cnc(N)c3c(-c4ccc(NC(=O)Nc5ccccc5)cc4)csc23)cn1` yielded an EC15 in [1] of 9 nM. Besides, the ED50 in data set [2] came out at 0.3 mg/kg. In addition, the IC50 in data set [3] came out at 6 nM; in [4] it was 3 nM.
As for `C[C@@H](O)Cn1cc(-c2cnc(N)c3c(-c4ccc(NC(=O)Nc5cccc(F)c5)cc4)csc23)cn1`, in data set [1], the EC15 was found to be 2 nM. The bioavailability in data set [5] was determined as 42%. The compound also displayed an AUC in data set [6] of 14600 ng·h/mL. In addition, the clearance in data set [7] was 5 mL/min/kg. Moreover, the “inhibition (INH)” value in data set [8] is listed as below 20%. For the same compound, in [2], the ED50 came to 1.2 mg/kg. This compound also showed a Vd in data set [9] of 1.2 L/kg. Moreover, in data set [3], the IC50 stood at 1 nM. The half-life in [10] is 174 min.
With `CN1CCC(n2cc(-c3cnc(N)c4c(-c5ccc(NC(=O)Nc6cccc(F)c6)cc5)csc34)cn2)C1=O` (stereo unspecified), the EC15 in data set [1] worked out at 1 nM. For the same compound, the ED50 in [2] stood at 0.4 mg/kg. The figures for the IC50 in data set [3] and in data set [4] were 5 nM and 6 nM, respectively.
For the compound `CNC(=O)c1cnc(N)c2c(-c3ccc(NC(=O)Nc4cccc(C)c4)cc3)csc12`, in data set [1], the EC15 is 46 nM. Moreover, the IC50 in data set [3] came to 13 nM; in [11], 1 nM.
Consider `Nc1ncc(-c2cnn(CCCN3CC[C@@H](O)C3)c2)c2scc(-c3ccc(NC(=O)Nc4cccc(F)c4)cc3)c12`, for which the EC15 in [1] was below 1 nM. Besides, the IC50 in data set [3] and in data set [4] was 2 nM each time.
The compound `Cc1cccc(NC(=O)Nc2ccc(-c3csc4c(-c5cc[nH]n5)cnc(N)c34)cc2)c1` had an EC15 in data set [1] of 161 nM. The IC50 in data set [3] is 66 nM; in [4], 6 nM; in data set [11], 3 nM.
In turn, `Cc1cccc(NC(=O)Nc2ccc(-c3csc4c(C#CCN(C)C)cnc(N)c34)cc2)c1` gave an EC15 in data set [1] of 141 nM. The compound further had an IC50 in [3] of 11 nM.
In turn, `Cn1cc(-c2cnc(N)c3c(-c4ccc(NC(=O)Nc5cccc(Cl)c5)cc4)csc23)cn1` yielded an EC15 in [1] of 18 nM. Besides, in data set [2], the ED50 worked out at 2 mg/kg. For the same compound, the IC50 was determined as 70 nM in [3] and 7 nM in data set [4].
Taken in the same sequence, the figures for `COc1ccccc1NC(=O)Nc1ccc(-c2csc3c(-c4cnn(C)c4)cnc(N)c23)cc1` were above 100 nM, 8 mg/kg, 52 nM and 6 nM.
For `Cc1cccc(NC(=O)Nc2ccc(-c3csc4c(-c5ccsc5)cnc(N)c34)cc2)c1`, the EC15 in data set [1] is above 300 nM. Moreover, the IC50 turned out to be 179 nM in [3], 9 nM in data set [4] and 31 nM in data set [11].
`CS(=O)(=O)CCn1cc(-c2cnc(N)c3c(-c4ccc(NC(=O)Nc5cccc(F)c5)cc4)csc23)cn1`: in [1], the EC15 is 4 nM. For the same compound, the 50% effective dose (ED50) in data set [2] turned out to be 10 mg/kg. The IC50 in data set [3] is 11 nM; in data set [4], 1 nM.
The compound `Cc1cccc(NC(=O)Nc2ccc(-c3csc4c(-c5cc[nH]c5)cnc(N)c34)cc2)c1` came in with an EC15 in data set [1] of 389 nM. For the same compound, the IC50 turned out to be 68 nM in data set [3], 4 nM in data set [4] and 1 nM in data set [11].
`Cc1cccc(NC(=O)Nc2ccc(-c3csc4c(-c5cnn(C)c5)cnc(N)c34)cc2)c1` came in with an EC15 in data set [1] of 55 nM. Besides, in [5], the bioavailability is 59%. Besides, the area under the curve (AUC) in data set [6] is 5640 ng·h/mL. For the same compound, the clearance in [7] is 18.3 mL/min/kg. Besides, in data set [12], the inhibition in vivo at 10 mg/kg is above 70%. Further, the ED50 in data set [2] stood at 1 mg/kg. Further, the Vd in data set [9] came to 2.3 L/kg. Besides, the half-life in data set [10] was 90 min.
Compound `COc1ccc(NC(=O)Nc2ccc(-c3csc4c(-c5cnn(C)c5)cnc(N)c34)cc2)cc1` gave an EC15 in data set [1] of 57 nM. Moreover, in data set [5], the bioavailability was 44%. The same compound registered an AUC in data set [6] of 5220 ng·h/mL. The compound also showed a clearance in [7] of 15 mL/min/kg. The “inhibition (INH)” value in data set [8] was below 20%. Besides, the 50% effective dose (ED50) in data set [2] worked out at 1.3 mg/kg. This compound had a Vd in data set [9] of 1.5 L/kg. The IC50 in data set [3] was determined as 114 nM; in data set [4], 6 nM. In [10], the half-life is 78 min.
`CNC(=O)/C=C/c1cnc(N)c2c(-c3ccc(NC(=O)Nc4cccc(C)c4)cc3)csc12`: the EC15 in [1] was 87 nM. Further, the IC50 in [3] stood at 80 nM; in data set [4], 6 nM; in data set [11] it was 22 nM.
As to `Cn1cc(-c2cnc(N)c3c(-c4ccc(NC(=O)Nc5ccc(Cl)cc5)cc4)csc23)cn1`, the EC15 in data set [1] worked out at 27 nM. The ED50 in data set [2] was determined as 0.3 mg/kg. Further, the IC50 in data set [3] was 48 nM; in data set [4] it was 8 nM.
Take `Cn1cc(-c2cnc(N)c3c(-c4ccc(NC(=O)Nc5cccc(C(N)=O)c5)cc4)csc23)cn1`: in data set [1], the EC15 was found to be 413 nM. The ED50 in [2] was above 10 mg/kg. For the same compound, the results for the IC50 in data set [3] and in data set [4] were 23 nM and 2 nM, respectively.
The corresponding values for `Cn1cc(-c2cnc(N)c3c(-c4ccc(NC(=O)Nc5ccc(OC(F)(F)F)cc5)cc4)csc23)cn1` are 12 nM, 2.6 mg/kg, 17 nM and 3 nM.
`CCCn1cc(-c2cnc(N)c3c(-c4ccc(NC(=O)Nc5cccc(F)c5)cc4)csc23)cn1` yielded an EC15 in data set [1] of 4 nM. This compound also displayed a bioavailability in data set [5] of 52%. In data set [6], this compound had an AUC of 5260 ng·h/mL. Besides, the clearance in [7] is 16.7 mL/min/kg. Besides, the “inhibition (INH)” value in data set [8] is given as below 20%. Also, the inhibition in vivo at 10 mg/kg in data set [12] was above 70%. In data set [2], the ED50 was determined as 1.5 mg/kg. This compound yielded a Vd in data set [9] of 1.2 L/kg. The compound further came in with an IC50 in data set [3] of 31 nM. Also, the half-life in [10] is 48 min.
On to `CC(C)Cn1cc(-c2cnc(N)c3c(-c4ccc(NC(=O)Nc5cccc(F)c5)cc4)csc23)cn1`, for which, in data set [1], the EC15 was found to be 355 nM. The ED50 in data set [2] was found to be 1.1 mg/kg. Besides, the IC50 in data set [3] is 177 nM; in data set [4] it was 25 nM.
Compound `Cc1cccc(NC(=O)Nc2ccc(-c3csc4c(-c5ccccc5)cnc(N)c34)cc2)c1` displayed an IC50 in data set [3] of 3280 nM.
In data set [1], `Cc1cccc(NC(=O)Nc2ccc(-c3csc4c(-c5ccoc5)cnc(N)c34)cc2)c1` showed an EC15 above 300 nM. Further, the IC50 in data set [3] worked out at 100 nM; in data set [4], 8 nM; in data set [11], 14 nM.
Turning to `CC(C)CCn1cc(-c2cnc(N)c3c(-c4ccc(NC(=O)Nc5cccc(F)c5)cc4)csc23)cn1`, the IC50 in data set [3] stood at 529 nM; in [4], 25 nM.
The compound `Cc1ccc(NC(=O)Nc2ccc(-c3csc4c(-c5cnn(C)c5)cnc(N)c34)cc2)cc1` came in with an EC15 in data set [1] of 64 nM. For the same compound, the ED50 in [2] was determined as 1 mg/kg. Besides, the half-maximal inhibitory concentration (IC50) in data set [3] was found to be 50 nM.
As for `Nc1ncc(-c2cnn(CCN3CCCCC3)c2)c2scc(-c3ccc(NC(=O)Nc4cccc(F)c4)cc3)c12`, in data set [1], the EC15 was below 3 nM. In data set [2], the ED50 is above 10 mg/kg. Moreover, the IC50 in data set [3] was found to be 8 nM; in data set [4] it was 4 nM.
